Assay results reported in the supplement of paper PMC10412643.

Legend:
Conditions in all cases: CAMHB, incubation time 20 h
ceftazidime = compound: CC(C)(O/N=C(\C(=O)N[C@@H]1C(=O)N2C(C(=O)[O-])=C(C[n+]3ccccc3)CS[C@H]12)c1csc(N)n1)C(=O)O [ceftazidime]
cefiderocol = compound: CC(C)(O/N=C(\C(=O)N[C@@H]1C(=O)N2C(C(=O)[O-])=C(C[N+]3(CCNC(=O)c4ccc(O)c(O)c4Cl)CCCC3)CS[C@H]12)c1csc(N)n1)C(=O)O [cefiderocol]
meropenem = compound: C[C@@H](O)[C@H]1C(=O)N2C(C(=O)O)=C(S[C@@H]3CN[C@H](C(=O)N(C)C)C3)[C@H](C)[C@H]12 [meropenem]

Row | Test System | MIC (ceftazidime; avibactam 0 µg/mL) [µg/mL] | MIC (ceftazidime; avibactam 8 µg/mL) [µg/mL] | MIC (cefiderocol; avibactam 0 µg/mL) [µg/mL] | MIC (cefiderocol; avibactam 8 µg/mL) [µg/mL] | MIC (meropenem; avibactam 0 µg/mL) [µg/mL] | MIC (meropenem; avibactam 8 µg/mL) [µg/mL]
1 | P. aeruginosa PA14 | 2 | 2 | 1 | 1 | 0.5 | 0.25
2 | B. cenocepacia 130723 | 16 | 8 | 0.5 | 0.25 | 4 | 1
3 | B. gladioli VC14812 | 32 | 16 | 0.5 | 0.5 | 8 | 8
4 | P. aeruginosa 20NB681421 | 4 | 4 | 1 | 1 | 1 | 0.5
5 | B. contaminans 21NG609698 | 16 |  | 2 | 2 | 32 | 8
6 | B. cenocepacia F9141525 | 128 | 16 | 0.5 | 0.5 | 32 | 4
7 | P. aeruginosa 74 | 128 | 2 | > 4 | > 4 | 16 | 2
8 | S. maltophilia 21NE928511 | > 128 | > 128 | > 4 | > 4 | > 64 | > 64
9 | B. cenocepacia K56-2 | 32 |  | 0.125 | 0.125 | 16 | 2
10 | B. multivorans VC15535 | 32 | 16 | 0.5 | 0.5 | 16 | 8
11 | B. cenocepacia G11815681 | 16 | 8 | 2 | 0.5 | 32 | 2
12 | B. dolosa LM018941 | 16 | 2 | > 4 | > 4 | 16 | 0.5
13 | B. cenocepacia VC10414 | 8 |  | 0.125 | 0.125 | 32 | 2
14 | S. maltophilia 04 T22674 | 2 | 2 | 0.5 | 0.5 | 16 | 16
15 | B. dolosa CEP021 | 2 | 1 | 0.5 | 0.5 | 2 | 1
16 | B. gladioli 132208 | 2 | 2 | 0.5 | 0.5 | 0.5 | 0.5
17 | B. cenocepacia F4200989-3 | 128 | 32 | 2 | 1 | 32 | 4
18 | A. xylosoxidans ACH09 | 1 | 1 | 0.25 | 0.25 | 0.125 | 0.125
19 | B. multivorans VC15555 | 2 | 2 | > 4 | > 4 | 8 | 4

Row | Test System | MIC (ceftazidime; avibactam 0 µg/mL) [µg/mL] | MIC (ceftazidime; avibactam 8 µg/mL) [µg/mL] | MIC (cefiderocol; avibactam 0 µg/mL) [µg/mL] | MIC (cefiderocol; avibactam 8 µg/mL) [µg/mL] | MIC (meropenem; avibactam 0 µg/mL) [µg/mL] | MIC (meropenem; avibactam 8 µg/mL) [µg/mL]
20 | P. aeruginosa PAO1 | 1 | 1 | 1 | 1 | 0.5 | 0.5
21 | B. multivorans C5393 | 8 |  | 0.25 | 0.25 | 16 | 1
22 | B. multivorans 131077 | 8 | 8 | 0.125 | 0.125 | 4 | 1
23 | B. contaminans LMG23361 | 2 | 2 | 0.125 | 0.125 | 4 | 0.5
24 | S. maltophilia K279a | 2 | 1 | 0.125 | 0.125 | 2 | 2
25 | B. cenocepacia BC7 | 16 | 16 | > 4 | > 4 | 16 | 1
26 | B. cenocepacia VC14543 | 8 | 8 | 0.125 | 0.0625 | 16 | 4
27 | B. multivorans F9091687 | 2 | 2 | 0.25 | 0.25 | 0.5 | 0.5
28 | B. gladioli 113611 | 32 | 32 | 4 | 4 | 2 | 2
29 | B. dolosa AU2167 | 64 |  | > 4 | > 4 | 32 | 1
30 | B. contaminans 21NG595759 | 16 | 8 | 1 | 2 | 32 | 8
31 | A. xylosoxidans ACH02 | 2 | 2 | 0.25 | 0.25 | 1 | 1
32 | B. multivorans V1120157 | 2 | 2 | 0.125 | 0.125 | 1 | 1
33 | B. vietnamiensis VC18984 | 16 |  | > 4 | > 4 | 8 | 4
34 | S. maltophilia 05 41846 | 4 | 4 | 0.5 | 0.5 | > 64 | > 64
35 | B. cenocepacia 134991 | 8 | 8 | > 4 | > 4 | 2 | 2
36 | B. cenocepacia F3071909 | 32 | 32 | > 4 | > 4 | 16 | 2
37 | B. multivorans 134955 | 8 | 8 | 0.125 | 0.125 | 8 | 1
38 | A. xylosoxidans ACH03 | 1 | 1 | 0.125 | 0.125 | 0.25 | 0.25

Row | Test System | MIC (ceftazidime; avibactam 0 µg/mL) [µg/mL] | MIC (ceftazidime; avibactam 8 µg/mL) [µg/mL] | MIC (cefiderocol; avibactam 0 µg/mL) [µg/mL] | MIC (cefiderocol; avibactam 8 µg/mL) [µg/mL] | MIC (meropenem; avibactam 0 µg/mL) [µg/mL] | MIC (meropenem; avibactam 8 µg/mL) [µg/mL]
39 | B. multivorans 130034 | 8 | 8 | 0.125 | 0.125 | 8 | 4
40 | B. dolosa AU0645 | > 128 | 8 | > 4 | > 4 | 16 | 2
41 | B. gladioli VC19233 |  | 2 | 0.25 | 0.25 | 1 | 1
42 | B. dolosa AU6940 | 16 | 16 | 2 | 2 | 32 | 2
43 | B. cenocepacia 110041 |  |  | 0.0625 | 0.0625 | 32 | 4
44 | B. vietnamiensis CEP40 |  | 2 | 0.125 | 0.0625 | 1 | 1
45 | B. multivorans LM013010 |  |  | 0.25 | 0.25 | 8 | 1
46 | B. cenocepacia VC14488 |  | 2 | 0.25 | 0.25 | 4 | 1
47 | P. aeruginosa 71 | > 128 | 4 | 4 | 4 | 32 | 4
48 | S. maltophilia 20NC580771 | > 128 | > 128 | 0.25 | 0.25 | > 64 | > 64
49 | B. multivorans VC19694 |  | 1 | 1 | 1 | 8 | 4
50 | P. aeruginosa 70 | 0.5 | 0.5 | 0.5 | 0.5 | 0.125 | 0.125
51 | B. vietnamiensis VC11431 | 32 | 2 | 1 | 0.125 | 16 | 1
52 | P. aeruginosa 21NE72623 | 16 | 2 | > 4 | > 4 | 0.5 | 0.125
53 | S. maltophilia D457 | 1 | 1 | 0.125 | 0.125 | 32 | 32
54 | S. maltophilia 03 T2510 | 32 | 32 | 1 | 1 | > 64 | > 64
55 | B. cenocepacia VC14761 | 2 | 2 | 0.125 | 0.0625 | 4 | 1
56 | B. multivorans VC9825 | 2 | 2 | 0.25 | 0.125 | 2 | 1
